The text below walks through data of patent US10434112B2, “Use of agonists of formyl peptide receptor 2 for treating dermatological diseases” (Allergan, Inc., priority 2013, dated 2019).

Structures are written as SMILES.

One may read the EC50 as the concentration that produces a half-maximal response.

human FPR2 receptor, sequence (P25090 whole entry): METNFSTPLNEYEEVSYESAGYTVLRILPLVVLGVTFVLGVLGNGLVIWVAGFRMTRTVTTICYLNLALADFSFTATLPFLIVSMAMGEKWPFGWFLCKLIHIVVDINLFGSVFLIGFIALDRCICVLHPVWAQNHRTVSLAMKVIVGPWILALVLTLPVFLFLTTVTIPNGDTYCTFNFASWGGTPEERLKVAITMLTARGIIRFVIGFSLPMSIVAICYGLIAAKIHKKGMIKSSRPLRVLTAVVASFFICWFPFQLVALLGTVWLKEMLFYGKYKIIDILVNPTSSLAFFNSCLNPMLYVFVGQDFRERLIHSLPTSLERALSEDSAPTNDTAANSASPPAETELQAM

One test concerns the target human FPR2 receptor (Homo sapiens (Human), UniProt P25090). Nature of the test: FLIPR Ca+2 response in HEK-Gα16 cells stably expressing the human FPR2 receptor. In kind it is cell-based. Further details: FPR2 (% eff): unit not given here. Particulars: Table 4. An outline of the steps: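 HEK-Gα16 cells stably expressing human FPR2, loaded with 2 μM Fluo-4 in HBSS/20 mM HEPES for 40 min at 37° C., then washed. Ligands added in HBSS/Hepes and Ca+2 responses recorded on FLIPR in relative fluorescence units.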
Compound `O=C(Nc1ccc(Br)cc1F)N[C@@H](Cc1ccccc1)C(=O)NCCO` [Compound 71, (2S)-2-{[(4-bromo-2-fluorophenyl)carbamoyl]amino}-N-(2-hydroxyethyl)-3-phenylpropanamide] displayed an EC50 of 15.6 nM.

In turn, `O=C(O)CNC(=O)[C@H](Cc1c[nH]c2ccccc12)NC(=O)Nc1ccc(Br)cc1` (stereo in doubt) [Compound 150, {[2-{[(4-bromophenyl)carbamoyl]amino}-3-(1H-indol-3-yl)propanoyl]amino}acetic acid] came in with an EC50 of 1.4 nM.

The test is the same for the next values; noted with them: Table 4; value in brackets, given mostly as fraction.
With `CC1(CCc2ccc(O)cc2)NC(=O)N(NC(=O)Nc2ccc(Br)cc2F)C1=O` (centres unmarked) [Compound 89, 1-(4-bromo-2-fluorophenyl)-3-{4-[2-(4-hydroxyphenyl)ethyl]-4-methyl-2,5-dioxoimidazolidin-1-yl}urea], the “FPR2 (% eff)” value was found to be 0.85.

On to `O=C(Nc1ccc(Br)cc1F)N[C@@H](Cc1ccccc1)C(=O)NCCO` [Compound 71, (2S)-2-{[(4-bromo-2-fluorophenyl)carbamoyl]amino}-N-(2-hydroxyethyl)-3-phenylpropanamide], for which the “FPR2 (% eff)” value turned out to be 0.98.

Turning to `CC(C)C[C@H](NC(=O)Nc1ccc(Br)cc1)C(=O)N[C@H](C)CO` [Compound 96, (2S)-2-{[(4-bromophenyl)carbamoyl]amino}-N-[(2R)-1-hydroxypropan-2-yl]-4-methylpentanamide], the “FPR2 (% eff)” value worked out at 1.0.

As for `CC(C)C[C@H](NC(=O)Nc1ccc(Br)cc1)C(=O)NCP(=O)(OC(C)C)OC(C)C` [Compound 131, dipropan-2-yl({[(2S)-2-{[(4-bromophenyl)carbamoyl]amino}-4-methylpentanoyl]amino}methyl)phosphonate], the “FPR2 (% eff)” value worked out at 1.0.

As for `CS(=O)(=O)c1ccc(NC(=O)Nc2ccc3c(c2)C(=O)N(CCc2c[nH]cn2)C(c2ccc(Cl)cn2)C3)cc1` (centres unmarked) [Compound 33, 1-{3-(5-chloropyridin-2-yl)-2-[2-(1H-imidazol-4-yl)ethyl]-1-oxo-1,2,3,4-tetrahydroisoquinolin-7-yl}-3-[4-(methylsulfonyl)phenyl]urea], the “FPR2 (% eff)” value was 0.99.

Regarding `CSc1ccc(NC(=O)Nc2ccc3c(c2)C(=O)N(CCc2c[nH]cn2)C(c2ccc(Cl)nc2)C3)cc1` (centres unmarked) [Compound 28, 1-{3-(6-chloropyridin-3-yl)-2-[2-(1H-imidazol-4-yl)ethyl]-1-oxo-1,2,3,4-tetrahydroisoquinolin-7-yl}-3-[4-(methylsulfanyl)phenyl]urea], the “FPR2 (% eff)” value is given as 0.89.

With `CC(C)C[C@H](NC(=O)Nc1ccc(Br)cc1)C(=O)O` [Compound 9, (2S)-2-{[(4-bromophenyl)carbamoyl]amino}-4-methylpentanoic acid], the “FPR2 (% eff)” value was 0.77.

Regarding `CC[C@H](C)[C@H](NC(=O)Nc1ccc(Br)cc1)C(=O)NCC(C)=O` [Compound 63, (2S,3S)-2-{[(4-bromophenyl)carbamoyl]amino}-3-methyl-N-(2-oxopropyl)pentanamide], the “FPR2 (% eff)” value came out at 0.97.

On to `CCC[C@H](NC(=O)Nc1ccc(Br)cc1)C(=O)NCP(=O)(OCC)OCC` [Compound 117, diethyl ({[(2S)-2-{[(4-bromophenyl)carbamoyl]amino}pentanoyl]amino}methy) phosphonate], for which the “FPR2 (% eff)” value turned out to be 1.0.

As to `CCC1(CCc2ccccc2)NC(=O)N(NC(=O)Nc2ccc(Br)cc2)C1=O` (centres unmarked) [Compound 1, 1-(4-bromophenyl)-3-[4-ethyl-2,5-dioxo-4-(2-phenylethyl)imidazolidin-1-yl]urea], the “FPR2 (% eff)” value worked out at 0.96.

Consider `CC(C)C1(CC(=O)NCCC(=O)O)NC(=O)N(NC(=O)Nc2ccc(Br)cc2)C1=O` (centres unmarked) [Compound 147, 3-({[1-{[(4-bromophenyl)carbamoyl]amino}-2,5-dioxo-4-(propan-2-yl)imidazolidin-4-yl]acetyl}amino)propanoic acid], for which the “FPR2 (% eff)” value came out at 0.99.

For `CC1(CCc2ccccc2O)NC(=O)N(NC(=O)Nc2ccc(Br)cc2)C1=O` (centres unmarked) [Compound 109, 1-(4-bromophenyl)-3-{4-[2-(2-hydroxyphenyl)ethyl]-4-methyl-2,5-dioxoimidazolidin-1-yl}urea], the “FPR2 (% eff)” value is 0.93.

With `CC(C)C[C@H](NC(=O)Nc1ccc(Br)cc1)C(=O)N[C@H](C(=O)O)c1ccccc1` [Compound 103, (2S)-{[(2S)-2-{[(4-bromophenyl)carbamoyl]amino}-4-methylpentanoyl]amino} (phenyl)ethanoic acid], the “FPR2 (% eff)” value came to 1.0.

For the compound `O=C(O)[C@@H]1C2CCC([C@@H]1C(=O)Nc1ccc(Br)cc1)C21CC1` (relative stereo) [Compound 14, rel-(2R,3S)-3-[(4-bromophenyl)carbamoyl]spiro [bicyclo[2.2.1]heptane-7,1′-cyclopropane]-2-carboxylic acid], the “FPR2 (% eff)” value was determined as 0.90.

Take `CCC[C@H](NC(=O)Nc1ccc(Br)cc1)C(=O)NCC(=O)OC` [Compound 72, methyl {[(2S)-2-{[(4-bromophenyl)carbamoyl]amino}pentanoyl]amino}acetate]: the “FPR2 (% eff)” value was 0.86.

On to `CSc1ccc(NC(=O)Nc2ccc3c(c2)C(=O)N(CCc2c[nH]cn2)C(c2ccc(Cl)cn2)C3)cc1` (centres unmarked) [Compound 32, 1-{3-(5-chloropyridin-2-yl)-2-[2-(1H-imidazol-4-yl)ethyl]-1-oxo-1,2,3,4-tetrahydroisoquinolin-7-yl}-3-[4-(methylsulfanyl)phenyl]urea], for which the “FPR2 (% eff)” value came to 0.91.

`CC(C)C[C@H](NC(=O)Nc1ccc(C(F)(F)F)cc1)C(=O)NCS(=O)(=O)O` [Compound 237, {[(2S)-4-methyl-2-({[4-(trifluoromethyl)phenyl]carbamoyl}amino)pentanoyl]amino}methanesulfonic acid]: the “FPR2 (% eff)” value was 0.99.

Turning to `CS(=O)(=O)c1ccc(NC(=O)Nc2ccc3c(c2)C(=O)N(CCc2c[nH]cn2)C(c2ccc(C#N)cc2)C3)cc1` (centres unmarked) [Compound 19, 1-{3-(4-cyanophenyl)-2-[2-(1H-imidazol-4-yl)ethyl]-1-oxo-1,2,3,4-tetrahydroisoquinolin-7-yl}-3-[4-(methylsulfonyl)phenyl]urea], the “FPR2 (% eff)” value worked out at 1.00.

Regarding `CC(C)C[C@H](NC(=O)Nc1ccc(Br)cc1)C(=O)NCS(=O)(=O)O` [Compound 127, {[(2S)-2-{[(4-bromophenyl)carbamoyl]amino}4-methylpentanoyl]amino} methanesulfonic acid], the “FPR2 (% eff)” value came out at 0.91.

Consider `CS(=O)(=O)c1ccc(NC(=O)Nc2ccc3c(c2)C(=O)N(CCCN)C(c2ccc(C#N)cc2)C3)cc1` (centres unmarked) [Compound 18, 1-[2-(3-aminopropyl)-3-(4-cyanophenyl)-1-oxo-1,2,3,4-tetrahydroisoquinolin-7-yl]-3-[4-(methylsulfonyl)phenyl]urea], for which the “FPR2 (% eff)” value was found to be 0.86.

As to `C[S+]([O-])c1ccc(NC(=O)Nc2ccc3c(c2)C(=O)N(CCc2c[nH]cn2)C(c2ccc(F)cn2)C3)cc1` (centres unmarked) [Compound 24, 1-{3-(5-fluoropyridin-2-yl)-2-[2-(1H-imidazol-4-yl)ethyl]-1-oxo-1,2,3,4-tetrahydroisoquinolin-7-yl}-3-[4-(methylsulfinyl)phenyl]urea], the “FPR2 (% eff)” value is on record as 0.93.

Regarding `CC(C)C[C@H](NC(=O)Nc1ccc(Br)cc1)C(=O)N(C)CC(=O)OC(C)(C)C` [Compound 154, tert-butyl {[(2S)-2-{[(4-bromophenyl)carbamoyl]amino}-4-methylpentanoyl](methyl)amino}acetate], the “FPR2 (% eff)” value is recorded as 0.85.

Turning to `O=C(Nc1ccc(Br)cc1)N[C@@H](Cc1ccccc1)C(=O)NCCO` [Compound 58, (2S)-2-{[(4-bromophenyl)carbamoyl]amino}-N-(2-hydroxyethyl)-3-phenylpropanamide], the “FPR2 (% eff)” value is reported as 0.86.

On to `CC(C)C1(CC(=O)NCCO)NC(=O)N(NC(=O)Nc2ccc(Br)cc2F)C1=O` (centres unmarked) [Compound 148, 2-[1-{[(4-bromo-2-fluorophenyl)carbamoyl]amino}-2,5-dioxo-4-(propan-2-yl)imidazolidin-4-yl]-N-(2-hydroxyethyl)acetamide], for which the “FPR2 (% eff)” value is reported as 0.98.

Take `C[S+]([O-])c1ccc(NC(=O)Nc2ccc3c(c2)C(=O)N(CCCNC(=O)OC(C)(C)C)[C@@H](c2ccc(C#N)cc2)C3)cc1` (stereo partly drawn) [Compound 40, (+) tert-butyl {3-[(3R)-3-(4-cyanophenyl)-7-({[4-(methylsulfinyl)phenyl]carbamoyl}amino)-1-oxo-3,4-dihydroisoquinolin-2(1H)-yl]propyl}carbamate]: the “FPR2 (% eff)” value was 0.91.

In turn, `O=C(O)CNC(=O)[C@H](Cc1c[nH]c2ccccc12)NC(=O)Nc1ccc(Br)cc1` (stereo in doubt) [Compound 150, {[2-{[(4-bromophenyl)carbamoyl]amino}-3-(1H-indol-3-yl)propanoyl]amino}acetic acid] came in with an FPR2 (% eff) of 98.

Take `CNC(=O)C1C(C(=O)Nc2ccc(Br)cc2)C2CCC1C21CC1` (centres unmarked) [Compound 46, N-(4-bromophenyl)-N′-methylspiro[bicyclo[2.2.1]heptane-7,1′-cyclopropane]-2,3-dicarboxamide]: the “FPR2 (% eff)” value is listed as 1.0.

Consider `CCC1(C(C)C)NC(=O)N(NC(=O)Nc2ccc(Br)cc2F)C1=O` (centres unmarked) [Compound 61, 1-(4-bromo-2-fluorophenyl)-3-[4-ethyl-2,5-dioxo-4-(propan-2-yl)imidazolidin-1-yl]urea], for which the “FPR2 (% eff)” value is given as 0.97.

For the compound `CC(C)CC(C)(NC(=O)Nc1ccc(Br)cc1)C(=O)O` (centres unmarked) [Compound 110, 2-{[(4-bromophenyl)carbamoyl]amino}-2,4-dimethylpentanoic acid], the “FPR2 (% eff)” value was 0.98.

Regarding `O=C(Nc1ccc(Br)cc1)NC(Cc1ccccc1)C(=O)NC1CCCCNC1=O` (centres unmarked) [Compound 10, 2-{[(4-bromophenyl)carbamoyl]amino}-N-(2-oxoazepan-3-yl)-3-phenylpropanamide], the “FPR2 (% eff)” value is recorded as 0.89.

On to `CSc1ccc(NC(=O)Nc2ccc3c(c2)C(=O)N(CCCN)[C@@H](c2ccc(C#N)cc2)C3)cc1` [Compound 36, (+)1-[(3R)-2-(3-aminopropyl)-3-(4-cyanophenyl)-1-oxo-1,2,3,4-tetrahydroisoquinolin-7-yl]-3-[4-(methylsulfanyl)phenyl]urea], for which the “FPR2 (% eff)” value is reported as 0.97.

Regarding `CC[C@H](C)[C@H](NC(=O)Nc1ccc(Br)cc1F)C(=O)NCC(=O)O` [Compound 59, {[(2S,3S)-2-{[(4-bromo-2-fluorophenyl)carbamoyl]amino}-3-methylpentanoyl]amino} acetic acid], the “FPR2 (% eff)” value worked out at 0.95.

As for `O=C(O)C1C(C(=O)Nc2ccc(I)cc2)C2CCC1C21CC1` (centres unmarked) [Compound 15, 3-[(4-iodophenyl)carbamoyl]spiro [bicyclo[2.2.1]heptane-7,1′-cyclopropane]-2-carboxylic acid], the “FPR2 (% eff)” value stood at 0.87.
